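Compound exposure: 48 hours, 5 concentrations, 96-well plates. The concentration for full growth arrest is given as TGI.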
Columns and labels:
Test in all cases: growth of human tumour cells (NCI), 48 h
RPMI-8226 leukemia = test system: RPMI-8226 leukemia
NCI-H522 lung = test system: NCI-H522 lung
SR leukemia = test system: SR leukemia
U251 CNS = test system: U251 CNS
KM12 colon = test system: KM12 colon
SNB-19 CNS = test system: SNB-19 CNS
SK-MEL-5 melanoma = test system: SK-MEL-5 melanoma
A498 renal = test system: A498 renal
NCI-H23 lung = test system: NCI-H23 lung
LOX IMVI melanoma = test system: LOX IMVI melanoma
HCT-15 colon = test system: HCT-15 colon
RXF 393 renal = test system: RXF 393 renal
SW-620 colon = test system: SW-620 colon
PC-3 prostate = test system: PC-3 prostate
HOP-92 NSCLC = test system: HOP-92 NSCLC
MDA-MB-435 = test system: MDA-MB-435
SK-MEL-2 melanoma = test system: SK-MEL-2 melanoma
HL-60(TB) leukemia = test system: HL-60(TB) leukemia
COLO 205 colon = test system: COLO 205 colon

Row | SMILES | TGI (RPMI-8226 leukemia) | TGI (NCI-H522 lung) | TGI (SR leukemia) | TGI (U251 CNS) | TGI (KM12 colon) | TGI (SNB-19 CNS) | TGI (SK-MEL-5 melanoma) | TGI (A498 renal) | TGI (NCI-H23 lung) | TGI (LOX IMVI melanoma) | TGI (HCT-15 colon) | TGI (RXF 393 renal) | TGI (SW-620 colon) | TGI (PC-3 prostate) | TGI (HOP-92 NSCLC) | TGI (MDA-MB-435) | TGI (SK-MEL-2 melanoma) | TGI (HL-60(TB) leukemia) | TGI (COLO 205 colon)
1 | O=C1/C(=C/c2ccc(O)cc2)CCc2ccc([N+](=O)[O-])cc21 | > 100 µM | > 30.8 µM | > 100 µM | > 100 µM | > 100 µM | 98.7 µM | > 100 µM | > 100 µM | > 100 µM | > 100 µM | > 100 µM | > 92.3 µM | > 100 µM | > 100 µM | > 89.6 µM | > 100 µM | > 100 µM | > 100 µM | > 100 µM
2 | COc1ccc2c(c1)-c1c(c3cc(OC)ccc3n1CCCN(C)C)CC2 | 26 µM | 25.7 µM | 22.1 µM | 27 µM | 21.8 µM | 34 µM | 8.29 µM | 31.3 µM | 37 µM | 20.9 µM | 32.1 µM | 20.2 µM | 32.1 µM | 25.3 µM | 33.8 µM | 15.1 µM | 31 µM | 55.3 µM | 5.9 µM
3 | O=C1OC(C2Cc3ccc4c(c3C2=O)CCC4)c2ccccc21 (centres undefined) | 85.1 µM | > 100 µM | > 100 µM | > 100 µM | > 100 µM | > 100 µM | > 100 µM | > 100 µM | > 100 µM | > 100 µM | > 100 µM | > 100 µM | > 100 µM | > 100 µM | > 100 µM | > 100 µM | > 100 µM | 83.1 µM | 45.8 µM
4 | O=C(NCCCNCCN1C(=O)c2cccc3cc([N+](=O)[O-])cc(c23)C1=O)c1cc(-c2ccccc2)nc2ccccc12 | 7.66 µM | 9.95 µM | 2.1 µM | 9.12 µM | 18.6 µM | 18.9 µM | 5.97 µM | 8.87 µM | 7.55 µM | 2.93 µM | 17.2 µM | 3.34 µM | 5.37 µM | 16.7 µM | 15 µM | 2.91 µM | 12.1 µM | 5.76 µM | 4.26 µM
5 | CCOC(=O)C(NC(C)=O)(Nc1ccc(S(N)(=O)=O)cc1)C(F)(F)F (centres undefined) | > 100 µM | > 100 µM | > 100 µM | > 100 µM | > 100 µM | > 100 µM | > 100 µM | > 100 µM | > 100 µM | > 100 µM | > 100 µM | > 100 µM | > 100 µM | > 100 µM | > 100 µM | > 100 µM | > 100 µM | > 100 µM | > 100 µM
6 | N#CC(C#N)=C/C=C/c1c(Cl)cccc1Cl | 7.46 µM | 3.06 µM | > 10 µM | 4.08 µM | 3.02 µM | > 10 µM | 3.28 µM | 6.49 µM | 2.87 µM | 3.36 µM | 4.01 µM | 2.97 µM | 4.21 µM | 3.68 µM | 4.8 µM | 4.59 µM | 3.47 µM | 4.04 µM | 3.17 µM
